In patent publication EP2982368A1, “Small molecule compounds displacing focal adhesion core components” (Universität Konstanz, priority 2014, dated 2016):

Assays:
Assay type in all cases: cell-based, mouse
GFP-FAK MEFs = test: Cell migration assay (single cell tracking, serum-stimulated); settings: for cell velocity: serum-stimulated
Procedure: Image J was used to automatically quantify FAK-containing focal adhesions due to local maxima of fluorescence intensity in the GFP-channel (5 to 70 pixel). The number of cells was automatically counted in the Hoechst channel. To test reproducibility of the system 40 control wells were quantified wherein four positions for each well were imaged. […] GFP-FAK mouse embryonic fibroblasts were seeded on fibronectin and incubated for 1 h with the indicated concentrations of the small compounds, respectively. […] GFP-FAK mouse embryonic fibroblasts were seeded on fibronectin and serum-starved overnight. The indicated concentrations of Mb31 were applied for 30 min. Cells were lysed and analyzed for paxillin and FAK protein level as well as FAK Tyr397 phosphorylation. […] The purified kinase domain of FAK was incubated with increasing amounts of Mb31 for 1 h at 30°C together with poly-Glu-Tyr as a FAK substrate. […] Serum-starved GFP-FAK mouse embryonic fibroblasts were stimulated with normal growth medium and incubated for 5 h with the indicated concentrations of the small molecule compounds, respectively. Cell viability was assessed by MTT assay. […] GFP-FAK MEFs were seeded on fibronectin and serum-starved overnight. Migration was stimulated by replacing the medium with normal growth medium. Migration of single cells was tracked for 8 h in 30 min intervals. Migration was recorded from cells that were cultured without serum (A), with serum (B) or with serum in the presence of 3 µM Mb31 (C). […] (A) GFP-FAK MEFs were seeded and serum-starved as in Figure 10. Cell migration was stimulated with normal growth medium and single cells were tracked for 5 h. […] Mouse embryonic fibroblasts (MEFs) were transfected with talin-mCherry and talin dynamics analyzed in focal adhesions using fluorescence recovery after photobleaching (FRAP). […] (C) Wound closure was microscopically analyzed and evaluated using ImageJ software.
To further determine whether Mb31 interferes with cell motility, GFP-FAK MEFs were serum-stimulated and migration was quantified on a single cell basis (Figures 11 and 12). […]

focal adhesions = test: Focal adhesion dynamics by TIRF microscopy (mKate-vinculin); settings: 5 µM, 40 minutes
talin = test: Talin-mCherry fluorescence recovery after photobleaching (FRAP); settings: 10 µM
Procedure: Image J was used to automatically quantify FAK-containing focal adhesions due to local maxima of fluorescence intensity in the GFP-channel (5 to 70 pixel). The number of cells was automatically counted in the Hoechst channel. To test reproducibility of the system 40 control wells were quantified wherein four positions for each well were imaged. […] GFP-FAK mouse embryonic fibroblasts were seeded on fibronectin and incubated for 1 h with the indicated concentrations of the small compounds, respectively. […] GFP-FAK mouse embryonic fibroblasts were seeded on fibronectin and serum-starved overnight. The indicated concentrations of Mb31 were applied for 30 min. Cells were lysed and analyzed for paxillin and FAK protein level as well as FAK Tyr397 phosphorylation. […] The purified kinase domain of FAK was incubated with increasing amounts of Mb31 for 1 h at 30°C together with poly-Glu-Tyr as a FAK substrate. […] Cell viability was assessed by MTT assay. […] Migration was recorded from cells that were cultured without serum (A), with serum (B) or with serum in the presence of 3 µM Mb31 (C). […] Mouse embryonic fibroblasts (MEFs) were transfected with talin-mCherry and talin dynamics analyzed in focal adhesions using fluorescence recovery after photobleaching (FRAP). […] (C) Wound closure was microscopically analyzed and evaluated using ImageJ software. […]

O=[N+]([O-])C=Cc1cc(Br)cs1 [FootLocker 1, 4-bromo-2-(2-nitrovinyl)thiophene]
cell velocity after treatment of migrating cells (GFP-FAK MEFs; added after 5 h tracking, 3 µM or more, further 5 h): 0.11 µm/min | cell velocity (GFP-FAK MEFs; 2 µM): 0.11 µm/min | cell velocity (GFP-FAK MEFs; 3 µM): 0.07 µm/min | nascent adhesion formation and mobility of mature adhesions (focal adhesions): nascent adhesion formation was absent and mature adhesions were immobile | talin-associated fluorescence recovery at bleached focal adhesions (talin): did not recover
